Measured values taken from ChEMBL document CHEMBL1201862, “PubChem BioAssay data set” (2004).
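Protocol summary: plate cells (96-well), add compound at 5 concentrations, incubate 48 h, interpolate endpoints linearly. GI50 = concentration required for 50% inhibition of growth.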 Activity calls are given as the source filed them. Rule as the data show it: active = GI50 up to about 1.1 µM and inactive = higher.

Key:
Experiment in all cases: NCI-60 cell line screen, 48 h
786-0 = system: 786-0
A498 = system: A498
A549 = system: A549
ACHN = system: ACHN
BT-549 = system: BT-549
CAKI-1 = system: CAKI-1
CCRF-CEM = system: CCRF-CEM
COLO 205 = system: COLO 205
DU-145 = system: DU-145
EKVX = system: EKVX
HCT-116 = system: HCT-116
HCT-15 = system: HCT-15
HL-60 = system: HL-60
HOP-62 = system: HOP-62
HOP-92 = system: HOP-92
HT-29 = system: HT-29
Hs-578T = system: Hs-578T
IGROV-1 = system: IGROV-1
KM12 = system: KM12
LOX IMVI = system: LOX IMVI
M14 = system: M14
MCF7 = system: MCF7
MDA-MB-231 = system: MDA-MB-231
MDA-MB-435 = system: MDA-MB-435
MOLT-4 = system: MOLT-4
NCI-H226 = system: NCI-H226
NCI-H23 = system: NCI-H23
NCI-H460 = system: NCI-H460
NCI/ADR-RES = system: NCI/ADR-RES
OVCAR-3 = system: OVCAR-3
OVCAR-5 = system: OVCAR-5
OVCAR-8 = system: OVCAR-8
PC-3 = system: PC-3
RPMI-8226 = system: RPMI-8226
SF-268 = system: SF-268
SF-295 = system: SF-295
SF-539 = system: SF-539
SK-MEL-28 = system: SK-MEL-28
SK-MEL-5 = system: SK-MEL-5
SK-OV-3 = system: SK-OV-3
SN12C = system: SN12C
SNB-19 = system: SNB-19
SNB-75 = system: SNB-75
SR = system: SR
SW-620 = system: SW-620
T47D = system: T47D
U-251 = system: U-251
UACC-257 = system: UACC-257
UO-31 = system: UO-31
HCC 2998 = system: HCC 2998
K562 = system: K562
MDA-N = system: MDA-N
NCI-H522 = system: NCI-H522
OVCAR-4 = system: OVCAR-4
RXF 393 = system: RXF 393
SK-MEL-2 = system: SK-MEL-2
TK-10 = system: TK-10
UACC-62 = system: UACC-62

## ClCCN1CCOC1=C1C=CC=C1
786-0
  GI50: > 100 µM (inactive)
A498
  GI50: > 100 µM (inactive)
A549
  GI50: > 100 µM (inactive)
ACHN
  GI50: > 100 µM (inactive)
BT-549
  GI50: > 100 µM (inactive)
CAKI-1
  GI50: > 100 µM (inactive)
CCRF-CEM
  GI50: 80.4 µM (inactive)
COLO 205
  GI50: > 100 µM (inactive)
DU-145
  GI50: > 100 µM (inactive)
EKVX
  GI50: > 100 µM (inactive)
HCT-116
  GI50: > 100 µM (inactive)
HCT-15
  GI50: > 100 µM
HL-60
  GI50: 96.6 µM (inactive)
HOP-62
  GI50: 43.9 µM (inactive)
HOP-92
  GI50: > 100 µM (inactive)
HT-29
  GI50: > 100 µM (inactive)
Hs-578T
  GI50: > 100 µM (inactive)
IGROV-1
  GI50: 14 µM (inactive)
KM12
  GI50: 18.4 µM (inactive)
LOX IMVI
  GI50: > 100 µM (inactive)
M14
  GI50: > 100 µM (inactive)
MCF7
  GI50: > 100 µM (inactive)
MDA-MB-231
  GI50: > 100 µM (inactive)
MDA-MB-435
  GI50: > 100 µM (inactive)
MOLT-4
  GI50: 55.8 µM (inactive)
NCI-H226
  GI50: > 100 µM (inactive)
NCI-H23
  GI50: > 100 µM (inactive)
NCI-H460
  GI50: > 100 µM (inactive)
NCI/ADR-RES
  GI50: > 100 µM (inactive)
OVCAR-3
  GI50: > 100 µM (inactive)
OVCAR-5
  GI50: > 100 µM (inactive)
OVCAR-8
  GI50: > 100 µM (inactive)
PC-3
  GI50: > 100 µM (inactive)
RPMI-8226
  GI50: > 100 µM (inactive)
SF-268
  GI50: > 100 µM (inactive)
SF-295
  GI50: > 100 µM (inactive)
SF-539
  GI50: > 100 µM (inactive)
SK-MEL-28
  GI50: > 100 µM (inactive)
SK-MEL-5
  GI50: > 100 µM (inactive)
SK-OV-3
  GI50: > 100 µM (inactive)
SN12C
  GI50: > 100 µM (inactive)
SNB-19
  GI50: > 100 µM (inactive)
SNB-75
  GI50: > 100 µM (inactive)
SR
  GI50: 19.3 µM (inactive)
SW-620
  GI50: > 100 µM (inactive)
T47D
  GI50: > 100 µM (inactive)
U-251
  GI50: > 100 µM (inactive)
UACC-257
  GI50: > 100 µM (inactive)
UO-31
  GI50: > 100 µM (inactive)

## Cc1ccc2nc(-n3c(/C=C/c4ccccc4O)nc4ccccc4c3=O)sc2c1
786-0
  GI50: > 100 µM (inactive)
A498
  GI50: > 100 µM (inactive)
A549
  GI50: > 100 µM (inactive)
ACHN
  GI50: > 100 µM (inactive)
BT-549
  GI50: > 100 µM (inactive)
CAKI-1
  GI50: > 100 µM (inactive)
CCRF-CEM
  GI50: 16.5 µM (inactive)
COLO 205
  GI50: > 100 µM (inactive)
DU-145
  GI50: > 100 µM (inactive)
EKVX
  GI50: 19.8 µM (inactive)
HCC 2998
  GI50: > 100 µM (inactive)
HCT-116
  GI50: > 100 µM (inactive)
HCT-15
  GI50: > 100 µM
HL-60
  GI50: > 100 µM (inactive)
HOP-62
  GI50: > 100 µM (inactive)
HOP-92
  GI50: > 100 µM (inactive)
HT-29
  GI50: > 100 µM (inactive)
Hs-578T
  GI50: > 100 µM (inactive)
IGROV-1
  GI50: > 100 µM (inactive)
K562
  GI50: > 100 µM (inactive)
KM12
  GI50: > 100 µM (inactive)
LOX IMVI
  GI50: > 100 µM (inactive)
M14
  GI50: > 100 µM (inactive)
MCF7
  GI50: > 100 µM (inactive)
MDA-MB-231
  GI50: > 100 µM (inactive)
MDA-MB-435
  GI50: > 100 µM (inactive)
MDA-N
  GI50: > 100 µM (inactive)
MOLT-4
  GI50: > 100 µM (inactive)
NCI-H226
  GI50: > 100 µM (inactive)
NCI-H23
  GI50: > 100 µM (inactive)
NCI-H460
  GI50: > 100 µM (inactive)
NCI-H522
  GI50: > 100 µM (inactive)
NCI/ADR-RES
  GI50: > 100 µM (inactive)
OVCAR-3
  GI50: > 100 µM (inactive)
OVCAR-4
  GI50: > 100 µM (inactive)
OVCAR-5
  GI50: > 100 µM (inactive)
OVCAR-8
  GI50: > 100 µM (inactive)
PC-3
  GI50: > 100 µM (inactive)
RPMI-8226
  GI50: 76.4 µM (inactive)
RXF 393
  GI50: > 100 µM (inactive)
SF-295
  GI50: > 100 µM (inactive)
SK-MEL-28
  GI50: > 100 µM (inactive)
SK-MEL-2
  GI50: > 100 µM (inactive)
SK-MEL-5
  GI50: > 100 µM (inactive)
SK-OV-3
  GI50: > 100 µM (inactive)
SNB-19
  GI50: > 100 µM (inactive)
SNB-75
  GI50: > 100 µM (inactive)
SW-620
  GI50: > 100 µM (inactive)
TK-10
  GI50: > 100 µM (inactive)
U-251
  GI50: > 100 µM (inactive)
UACC-257
  GI50: > 100 µM (inactive)
UACC-62
  GI50: > 100 µM (inactive)
UO-31
  GI50: > 100 µM (inactive)
